Columns and labels:
Assay type in all cases: in vivo, human
[1] = ADME study: PK of total radioactivity in blood and plasma (LSC); parameters: AUC (last), blood radioactivity / AUC (last), plasma radioactivity / AUC (inf), blood radioactivity: concentration or dose not given beside the values
Description: (§1) Six healthy male subjects of aged 18 to 55 years (inclusive) were included in this study.
The study consisted of a 28-day screening period (including baseline period of 1 day) and 12 days of treatment period. The study design is depicted in FIG. 10.
(§2) All treatment administrations (Day 1 to Day 12) occurred approximately 30 minutes following consumption of a standardized meal. Treatments were administered with ˜240 mL water as 4×100 mg hard gelatin capsules. The radioactive release criteria was met and all the subjects were released from the study site on Day 14 afternoon.
(§3) The PK blood sample collection schedule was appropriate to characterize the PK of Compound 1 and any circulating major metabolites. The urine and feces collection schedule was set up adequately to ensure complete excretion of radioactivity. Due to the non-linear PK of Compound 1, the study was conducted at steady state.
(§4) Subjects who met the eligibility criteria were admitted to the study site approximately 24 hours prior to dosing for baseline evaluations. […] Safety assessments included physical examinations, electrocardiograms (ECGs), vital signs, standard clinical laboratory evaluations (hematology, blood chemistry, and urinalysis), AE and serious adverse event (SAE) monitoring.
Blood, plasma, urine, and feces samples were obtained and evaluated in all subjects. […] If the co-efficient of variation of replicate radioactivity measurements was >20%, the sample was re-homogenized and/or reanalyzed.
Single-dose blood and plasma PK parameters (Cmax, Tmax, AUClast and AUCinf), for total radioactivity were derived from plasma and blood concentration versus sampling time data. PK parameters were determined using non-compartmental method(s) with Phoenix WinNonLin (Version 6.4) for total radioactivity.

[2] = ADME study: excretion/mass balance of radioactivity in urine and feces
Description: as §1, §2, §3
[14C]-radioactivity data, which was based on LSC analyses, for excreta was used to calculate percentage of dose excreted via urine or feces as well as a total percent of dose recovered.
(§5) Profiles of radioactive metabolites in urine and feces pools representing more than 90% of total radioactivity in the collected excreta of individual subjects were specified as dose proportion (%) per metabolite.

[3] = ADME study: metabolite pattern analysis in plasma
Description: as §1, §2, §5
Pharmacokinetic samples were obtained and evaluated in all subjects. Compound 1 was determined in plasma by a validated liquid chromatography with tandem mass spectrometry (LC-MS/MS) method using electrospray ionization. A non-validated method was used to analyze metabolites of Compound 1.

[4] = Relative bioavailability and food effect study, single oral dose of 450 mg, plasma PK of Compound 1
Text: (§6) Pharmacokinetic samples were obtained and evaluated in all subjects.

[5] = ADME study: plasma PK of Compound 1 at steady state (LC-MS/MS)
Description: as §1
All treatment administrations (Day 1 to Day 12) occurred approximately 30 minutes following consumption of a standardized meal. Treatments were administered with ˜240 mL water as 4×100 mg hard gelatin capsules.
as §6
The PK parameters were based on the actual recorded sampling times and non-compartmental method(s) with Phoenix WinNonLin (Version 6.4). The terminal rate constant (λz) was determined from automated (WinNonlin algorithm) linear regression of at least the last three points with non-zero concentrations in the terminal phase of the log-transformed concentration-time profile.

[6] = ADME study: safety and tolerability; settings: multiple-dose oral 400 mg Compound 1 and single oral 400 mg [14C]Compound 1, healthy subjects
Description: as §1, §2, §4

[7] = single oral 400 mg [14C]Compound 1 at steady state
[8] = blood, total radioactivity, mean of N = 6
[9] = time period 0-216 h, mean, radioactivity after [14C]Compound 1
[10] = plasma time pools of N = 6 subjects, metabolite pattern analysis
[11] = male, human, oral, 400 mg, Day 5, 0-12 hours, steady state, mean of N = 6

Structure (SMILES): COc1nc(C(=O)NC[C@](C)(O)C(F)(F)F)c(N)cc1C(F)(F)F [[14C]Compound 1]
- Time post-dose up to which radioactivity was detected in blood [1, 7]: up to 48 hours
- Time post-dose up to which radioactivity was detected in plasma [1, 7]: ≤ 96 h
- Radioactivity in samples collected after 96 hours post-dose ([2]; after 96 hours post-dose of [14C]Compound 1): less than 3 % of the dose
- Excretion of radioactivity, mean ([2]; after 9 days, range 93.4%-99.1%): 97.6%
- Extent of oral absorption ([2]; oral 400 mg [14C]Compound 1 at steady state, N=6, range 89.7%-97.40%): 93.4%
- Renal excretion of radioactivity (mainly in the form of metabolites) [2, 7]: 92.3±4.2 % of the dose
- Radioactive dose recovered in feces and urine ([2]; within 96 hours): > 95 % of dose

Structure (SMILES): COc1nc(C(=O)NC[C@](C)(O)C(F)(F)F)c(N)cc1C(F)(F)F [Compound 1, (S)-3-amino-6-methoxy-N-(3,3,3-trifluoro-2-hydroxy-2-methylpropyl)-5-(trifluoromethyl)picolinamide]
- AUC (inf), blood radioactivity ([1]; blood, total radioactivity, AUCinf = AUClast + AUCt-inf, mean of N = 6): 27900 ng-eq·h/mL
- Tlast (range), blood radioactivity ([1]; blood, total radioactivity, N = 6): 24 to 48 h
- AUC (last), blood radioactivity ([1]; blood, total radioactivity, linear trapezoidal rule, mean of N = 6): 24700 ng-eq·h/mL
- AUC % Extrap, blood radioactivity [1, 8]: 12.2 % of AUCinf
- AUC (% of 14C-AUCinf plasma), blood radioactivity [1, 8]: 57.9 % of 14C-AUCinf plasma
- Cmax, blood radioactivity ([1]; blood, total radioactivity, oral 400 mg [14C]Compound 1, mean of N = 6): 2670 ng-eq/mL
- Tlast (range), plasma radioactivity ([1]; plasma, total radioactivity, N = 6): 48 to 96 h
- AUC (last), plasma radioactivity ([1]; plasma, total radioactivity, linear trapezoidal rule, mean of N = 6): 45600 ng-eq·h/mL
- AUC % Extrap, plasma radioactivity ([1]; plasma, total radioactivity, mean of N = 6): 5.74 % of AUCinf
- Cmax, plasma radioactivity ([1]; plasma, total radioactivity, oral 400 mg [14C]Compound 1, mean of N = 6): 4280 ng-eq/mL
- Fraction of total radioactivity in blood confined to the plasma compartment (Fp) [1, 7]: 93.3±3.35%
- 14C-Excretion, Feces [2, 9]: 5.2 % of dose
- 14C-Excretion, Urine [2, 9]: 92.3 % of dose
- 14C-Excretion, Total ([2]; time period 0-216 h, urine plus feces, mean, radioactivity after [14C]Compound 1): 97.6 % of dose
- Compound 1 detected in urine ([2]; within 0-96 hours): 3.35 % of the dose
- AUC(0-inf) ([3]; male, human, oral, 400 mg, plasma time pools of N = 6 subjects, AUCinf = AUClast + AUCt-inf): 22.7 µM·h
- AUC(0-t) ([3]; male, human, oral, 400 mg, plasma time pools of N = 6 subjects, metabolite pattern analysis, linear trapezoidal method, read-out: AUC0-48 h in plasma): 22.1 µM·h
- half-life ([3]; male, human, oral, 400 mg, plasma time pools of N = 6 subjects, metabolite pattern analysis, read-out: T½ in plasma (converted)): 672 min
- Proportion of the plasma 14C-AUC0-48 h ([3]; metabolite pattern analysis, oral 400 mg [14C]Compound 1 at steady state): 18.5%
- Extent of metabolism ([3]; oral 400 mg [14C]Compound 1 at steady state, humans): extensively metabolized
- AUC0-48 h, percent of total radiolabeled components AUC0-48 h [3, 10]: 18.5%
- AUCinf, percent of total radiolabeled components AUCinf [3, 10]: 17.5%
- half-life ([4]; both sexes, human, plasma, single oral 450 mg, all fasted treatments): ~960 min
- Food effect ([4]; single 450 mg dose, high-fat meal vs fasted): positive food effect
- Tlast (range), plasma Compound 1 ([5]; Day 5, 0-12 hours): 12 h
- AUC (% of 14C-AUCinf plasma), plasma Compound 1 ([5]; Day 5, 0-12 hours, mean of N = 6): 16.6 % of 14C-AUCinf plasma
- CL/F ([5]; male, human, oral, 400 mg b.i.d., steady state, CV % 45.1%, read-out: Steady state plasma clearance (CLss/F), mean (converted)): 947 mL/min
- Vd/F ([5]; male, human, oral, 400 mg b.i.d., steady state, CV % 48.1%, read-out: Apparent volume of distribution (Vz/F), mean): 335 L
- Tmax ([5]; male, human, oral, 400 mg b.i.d., steady state, Day 5, range 1.0 hour-4.0 hours): 4 h
- AUC(0-t) [5, 11]: 8170 ng·h/mL
- Cmax [5, 11]: 1680 ng/mL
- Safety and tolerability [6]: safe and well tolerated

— patent publication US11865109B2 (NOVARTIS AG, priority 2019, dated 2024)
